One block for each molecule: values may come before it.
Assays:
Type in all cases: physicochemical
[1] = DSC heat treatment (heating-cooling-heating cycle) with XRPD; settings: RT to 260° C., to −30° C., to 300° C.
Method: The DSC heating-cooling-heating cycle was used to try to find a crystal form with a higher melting point.
During the cooling process, there is an obvious exothermic peak. The initial temperature of the exothermic peak is 206.8° C., which should be caused by crystal transformation. XRPD characterization was performed on three different positions during DSC treatment.

[2] = Suspension crystal transformation experiment of Polymorphic Form I and Polymorphic Form II; settings: concluded from suspension crystal transformation at RT and 50° C.
Method: Suspension crystal transformation experiments were carried out on Polymorph I and polymorph II at room temperature and 50° C. respectively (Table 13). The resulting solid was characterized by XRPD.

[3] = Dynamic water vapor adsorption (DVS)
Method: The instrument model used for dynamic moisture absorption and desorption analysis is IGA Sorp(Hidentity Isochema). The sample measurement adopts gradient mode, the relative humidity range of the test is 0% to 90%, and the humidity increment of each gradient is 10%. The specific parameters are as follows: • Sample temperature: 25° C. • Temperature stability: 0.1° C./min • Flow rate: 250 mL/min • Scan: 2 • Model: F1 • Minimum time: 30 min • Maximum time: 120 min • Waiting cap: 98% • Start: Adsorption Scan • Adsorption humidity (%):0, 10, 20, 30, 40, 50, 60, 70, 80, 90; • Desorption humidity (%):80, 70, 60, 50, 40, 30, 20, 10, 0.
The initial raw material of Compound I was slurried in acetone for 4 hours, filtered and the resulting solid was characterized by XRPD, PLM, TGA, DSC and DVS.

[4] = Stability determination at 25° C./92.5% RH (XRPD); settings: 25° C./92.5% RH for 9 days
Method: (§1) The solid samples obtained from the experiment were analyzed by D8 advance powder X-ray diffraction analyzer (Bruker). The instrument is equipped with a LynxEye detector, and the ray species is Cu Kα (λ=1.54184 Å). The 2θ scanning range of the sample is from 3° to 40°, and the scanning step is 0.02°. When measuring the sample, the light tube voltage and light tube current were 40 KV and 40 mA respectively.

[5] = XRPD characterization after heating (thermal crystal transformation)
Method: as §1

[6] = Volatilization at room temperature, sample checked by 1H NMR; settings: volatilized at room temperature in THF, MeOH-THF and THF-water
Method: The structure of the solid sample and the solvent contained in the sample were confirmed by ^1H NMR. The instrument used for ^1H NMR analysis is Bruker Advance 300 equipped with B-ACS 120 automatic sampling system.
Single solvent volatilization: an appropriate amount of initial raw materials of compound I was dissolved in the solvents shown in 1-6 in Table 8 to prepare a solution with a concentration of 8 to 20 mg/mL. The obtained solution was filtered, the filtrate was volatilized at room temperature, and the obtained solid was characterized by XRPD.
Binary solvent volatilization: an appropriate amount of initial raw materials of compound I was dissolved in the solvents shown in 7-25 of Table 8 to prepare a solution with a concentration of 10 mg/mL. After filtration, the resulting filtrate was then mixed with solvent −2; then volatilized at room temperature. A total of 19 solvent systems were used to carry out the volatilization experiment of binary solvent, and the obtained solid was characterized by XRPD.

SMILES: C[C@H](NC(=O)c1c(Cc2ccc(F)cc2)sc2c1CCOC2)c1ccc(C(=O)O)cc1 [polymorphic Form I, (S)-4-(1-(2-(4-fluorobenzyl)-4,7-dihydro-5H-thieno [2,3-c]pyran-3-carboxamido)ethyl) benzoic acid]
crystal form by XRPD at positions 1, 2 and 3 of the DSC treatment [1]: all polymorphic Form I | thermodynamic stability of the crystal form [2]: thermodynamically stable crystal form | polymorph of the sample before and after moisture absorption ([3]; DVS 0% to 90% RH): does not change | moisture absorbed (DVS) ([3]; at 80% RH, 25° C.): < 2% | crystal form by XRPD after storage in high humidity [4]: remain unchanged

SMILES: C[C@H](NC(=O)c1c(Cc2ccc(F)cc2)sc2c1CCOC2)c1ccc(C(=O)O)cc1 [polymorphic Form II, (S)-4-(1-(2-(4-fluorobenzyl)-4,7-dihydro-5H-thieno [2,3-c]pyran-3-carboxamido)ethyl) benzoic acid]
crystal form by XRPD after heating ([5]; heated to 200° C.): transformed into polymorphic Form I

SMILES: C[C@H](NC(=O)c1c(Cc2ccc(F)cc2)sc2c1CCOC2)c1ccc(C(=O)O)cc1 [polymorphic Form III, (S)-4-(1-(2-(4-fluorobenzyl)-4,7-dihydro-5H-thieno [2,3-c]pyran-3-carboxamido)ethyl) benzoic acid]
crystal form by XRPD after heating ([5]; heated to 240° C.): transformed into polymorphic Form I

The remaining lines, values ahead:

crystal form by XRPD after heating ([5]; heated to 200° C.): transformed into polymorphic Form I
SMILES: C[C@H](NC(=O)c1c(Cc2ccc(F)cc2)sc2c1CCOC2)c1ccc(C(=O)O)cc1 [polymorphic Form IV, (S)-4-(1-(2-(4-fluorobenzyl)-4,7-dihydro-5H-thieno [2,3-c]pyran-3-carboxamido)ethyl) benzoic acid]

chemical stability of the sample (1H NMR) [6]: degraded
SMILES: C[C@H](NC(=O)c1c(Cc2ccc(F)cc2)sc2c1CCOC2)c1ccc(C(=O)O)cc1 [compound I, (S)-4-(1-(2-(4-fluorobenzyl)-4,7-dihydro-5H-thieno [2,3-c]pyran-3-carboxamido)ethyl) benzoic acid]

crystal form by XRPD after heating ([5]; heated to about 236° C.): transformed into polymorphic Form I
SMILES: C[C@H](NC(=O)c1c(Cc2ccc(F)cc2)sc2c1CCOC2)c1ccc(C(=O)O)cc1 [polymorphic Form VI, (S)-4-(1-(2-(4-fluorobenzyl)-4,7-dihydro-5H-thieno [2,3-c]pyran-3-carboxamido)ethyl) benzoic acid]

crystal form by XRPD after heating ([5]; heated to 200° C.): converted into the polymorphic Form I
SMILES: C[C@H](NC(=O)c1c(Cc2ccc(F)cc2)sc2c1CCOC2)c1ccc(C(=O)O)cc1 [polymorphic Form V, (S)-4-(1-(2-(4-fluorobenzyl)-4,7-dihydro-5H-thieno [2,3-c]pyran-3-carboxamido)ethyl) benzoic acid]

Source: patent US12590103B2, “Polymorph of EP4 receptor antagonist, preparation method therefor and use thereof” (SHANGHAI YUYAO BIOTECH LTD., priority 2020, dated 2026)
